Assay results reported in paper PMC6225345, “Structural Characterization of the Lactobacillus Plantarum FlmC Protein Involved in Biofilm Formation” (Molecules : A Journal of Synthetic Chemistry and Natural …, 2018).

Target: T1, ΔTM-FlmC (FlmC81-335) (Lactiplantibacillus plantarum, UniProt F9UMI5)
T1 construct: gene lp_1000
Assay: co-purification from E. coli; organic extraction of unfolded protein, TLC and UHPLC-HRMS
Type: binding
Conditions: lipid acquired from expression host; identity inferred from m/z 775.5789 (+, in-source dehydro form) and 387.2863 (2-), tentative

T1 sequence (F9UMI5 entry or part of it, stated change not applied): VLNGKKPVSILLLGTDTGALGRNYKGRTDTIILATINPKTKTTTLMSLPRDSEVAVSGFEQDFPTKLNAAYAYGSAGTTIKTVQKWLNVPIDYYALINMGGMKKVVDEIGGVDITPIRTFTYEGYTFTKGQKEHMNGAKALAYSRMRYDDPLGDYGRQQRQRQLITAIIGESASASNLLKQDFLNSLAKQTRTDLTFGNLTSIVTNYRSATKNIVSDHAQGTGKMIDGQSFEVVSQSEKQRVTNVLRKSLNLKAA

CC(C)=CCCC(C)=CCCC(C)=CCCC(C)=CCCC(C)=CCCC(C)=CCCC(C)=CCCC(C)=CCCC(C)=CCCC(C)=CCOP(=O)(O)O [decaprenyl phosphate]
co-purification from E. coli; organic extraction of unfolded protein, TLC and UH: occurrence of a decaprenyl phosphate (dpr-P) ligand tightly bound to the protein was hypothesized
